Data as given in patent US20240199571A1, “THIOPHENE COMPOUND AND APPLICATION THEREOF” (MEDSHINE DISCOVERY INC., priority 2021, published 2024).
Structures can show the parent of a compound that is named as a salt.

What was measured:
[1] = tested on: NCI-H1417 cells; assay: Experiment 2: inhibition of NCI-H1417 cell proliferation (CellTiter-Glo, 10 days); format: cell-based; details: Homo sapiens, 240 h, 10 days incubation
Procedure: Experiment 2: Evaluation of Inhibitory Activity on NCI-H1417 Cell Proliferation
Experimental purpose: To test the inhibitory activity of test compounds on NCI-H1417 cell proliferation.
Experimental materials: RPMI 1640 medium, fetal bovine serum, Promega CellTiter-Glo reagent. The NCI-H1417 cell line was purchased from ATCC. Envision multilabel plate reader (PerkinElmer).
Experimental method: The compounds were dissolved to 10 mM and 5-fold diluted with DMSO in the compound plates, starting with a concentration of 2 mM. 3-fold serial dilution was performed with Bravo to 10 concentrations. Then 250 nL of the compound solution was transferred to the upper and lower double duplicate wells of a blank 384 cell plate with Echo. To each well containing the transferred 250 nL of DMSO/compound was added a cell suspension of 1000 cells/50 μL per well, and the compound was diluted 200-fold, i.e., resulting in an initial working concentration of 10 μM. The cell plate was incubated in a carbon dioxide incubator for 10 days. To the cell plate was added 25 μL of Promega CellTiter-Glo reagent per well and the mixture was shaken for 10 minutes at room temperature to stabilize the luminescence signal. Readings were performed on a PerkinElmer Envision multilabel plate reader.
Data analysis: Raw data were converted into inhibition rate using the formula: (Max−Ratio)/(Max−Min)*100%. The IC50 values could then be derived from four-parameter curve fitting. (derived from 205 mode in XLFIT5, iDBS)
The compounds were tested for inhibitory activity of compounds on NCI-H1417 cell proliferation, and the results are shown in Table 3.

[2] = target: human LSD1 (Homo sapiens (Human), UniProt O60341); assay: Experiment 1B: in vitro LSD1 enzyme activity, enzyme-coupled fluorescence (HRP/Amplex Red), H3(1-21)K4me2 peptide 10 μM (Reaction Biology); format: biochemical; details: histone H3(1-21)K4me2 peptide 10 μM
Procedure: Experiment 1B: Evaluation of Enzyme Activity
Testing unit: Reaction Biology Corp., USA.
The purpose of the assay was to test the in vitro inhibitory activity of the compounds against LSD1. The enzyme used in the assay was human LSD1, and the standard substrate was histone H3(1-21)K4me2 peptide (10 μM). The activity of the compounds was determined by the enzyme-coupling fluorescent method by the combined detection of H2O2 generated after the reaction of LSD1 by horseradish peroxidase (HRP) and the fluorescent reagent Amplex Red. Starting from 10 μM, the compounds were 3-fold diluted to detect the IC50 values of the compounds at 10 concentrations. The enzyme and substrate were incubated for 30 minutes before the compound was added to the substrate to start the reaction. Fluorescence detector: EnVision, excitation wavelength: Ex/Em=535/590 nM.

Row | SMILES | IC50 [1] | IC50 [2]
1 | CC(C)(O)Cn1ncc2cc(-c3sc(C(=O)N4CCC[C@@H](N)C4)cc3-c3ccc(C#N)c(F)c3)cnc21 [Compound 60] | 2.36 nM | 18.4 nM
2 | N#Cc1ccc(-c2cc(C(=O)N3CCC[C@@H](N)C3)sc2-c2ccn3nccc3c2)cc1F [Compound 75] | 28 nM | 28.9 nM
3 | N#Cc1ccc(-c2cc(C(=O)N3CCC[C@@H](N)C3)sc2-c2ccn3ccnc3c2)cc1F [Compound 84] | 25.9 nM | 13.2 nM
4 | CN[C@@H]1CCCN(C(=O)c2cc(-c3ccc(C#N)c(F)c3)c(-c3ccc(N4CC(C)(O)C4)cc3)s2)C1 [Compound 122] | 9.83 nM | 13.1 nM
5 | COc1ccc(-c2sc(C(=O)N3CCC[C@H](N)C3)cc2-c2ccc(C#N)c(F)c2)cc1F [Hydrochloride of compound 18] | 18.2 nM | 6.6 nM
6 | COc1ccc(-c2sc(C(=O)N3CC[C@@H](F)[C@@H](N)C3)cc2-c2ccc(C#N)c(F)c2)cc1F [Hydrochloride of compound 20] | 32.3 nM | 19.4 nM
7 | COc1ccc(-c2sc(C(=O)N3CCC[C@@H](N)C3)cc2-c2ccc(C#N)c(F)c2)c(F)c1 [Hydrochloride of compound 21] | 6.83 nM | 19.4 nM
8 | COc1ccc(-c2sc(C(=O)N3CCC(N(C)C)C3)cc2-c2ccc(C#N)c(F)c2)cc1F (centres unmarked) [Hydrochloride of compound 24] | 30.6 nM | 70.9 nM
9 | COc1ccc(-c2sc(C(=O)N3CCCC(N(C)C)C3)cc2-c2ccc(C#N)c(F)c2)cc1F (centres unmarked) [Hydrochloride of compound 26] | 6.87 nM | 19.6 nM
10 | COc1ccc(-c2sc(C(=O)N3CCNC(C)CC3)cc2-c2ccc(C#N)c(F)c2)cc1F (centres unmarked) [Hydrochloride of compound 29] | 17.2 nM | 29.7 nM
11 | N#Cc1ccc(-c2cc(C(=O)N3CCC[C@@H](N)C3)sc2-c2ccc3[nH]c(=O)oc3c2)cc1F [Hydrochloride of compound 31] | 11.3 nM | 26.7 nM
12 | N#Cc1ccc(-c2cc(C(=O)N3CCC[C@@H](N)C3)sc2-c2ccnc(N)c2)cc1F [Hydrochloride of compound 33] | 16.2 nM | 38 nM
13 | Cn1c(=O)oc2ccc(-c3sc(C(=O)N4CCC[C@@H](N)C4)cc3-c3ccc(C#N)c(F)c3)cc21 [Hydrochloride of compound 34] | 9.92 nM | 36.5 nM
14 | CN1Cc2ccc(-c3sc(C(=O)N4CCC[C@@H](N)C4)cc3-c3ccc(C#N)c(F)c3)cc2C1=O [Hydrochloride of compound 35] | 8.84 nM | 24.6 nM
15 | N#Cc1ccc(-c2cc(C(=O)N3CCC[C@@H](N)C3)sc2-c2ccc3c(c2)OCO3)cc1F [Hydrochloride of compound 37] | 0.93 nM | 1.73 nM
16 | CS(=O)(=O)c1ccc(-c2sc(C(=O)N3CCC[C@@H](N)C3)cc2-c2ccc(C#N)c(F)c2)cc1 [Hydrochloride of compound 44] | 8.87 nM | 70.6 nM
17 | CC(C)S(=O)(=O)c1ccc(-c2sc(C(=O)N3CCC[C@@H](N)C3)cc2-c2ccc(C#N)c(F)c2)cc1 [Hydrochloride of compound 47] | 10.2 nM | 48.8 nM
18 | N#Cc1ccc(-c2cc(C(=O)N3CCC[C@@H](N)C3)sc2-c2ccc3nn(C4CCOCC4)cc3c2)cc1F [Hydrochloride of compound 64] | 16.2 nM | 29.6 nM
19 | N#Cc1ccc(-c2cc(C(=O)N3CCC[C@@H](N)C3)sc2-c2ccc3nn(C4CCOC4)cc3c2)cc1F (some centres unmarked) [Hydrochloride of compound 72] | 4.47 nM | 8.56 nM
20 | N#Cc1ccc(-c2cc(C(=O)N3CCC[C@@H](N)C3)sc2-c2ccc3nn(CC4(O)CCC4)cc3c2)cc1F [Hydrochloride of compound 79] | 3.32 nM | 13.6 nM
21 | N#Cc1ccc(-c2cc(C(=O)N3CCC[C@@H](N)C3)sc2-c2ccc(N3CCC(O)C3)cc2)cc1F (some centres unmarked) [Hydrochloride of compound 85] | 2.32 nM | 14.2 nM
22 | N#Cc1ccc(-c2cc(C(=O)N3CCC[C@@H](N)C3)sc2-c2cc3nnn(CC4(O)CCC4)c3c(F)c2F)cc1F [Hydrochloride of compound 92] | 0.43 nM | 9.81 nM

The next lines start with the values.

Row | IC50 [1] | IC50 [2] | SMILES
23 | 4.11 nM | 18 nM | N#Cc1ccc(-c2cc(C(=O)N3CCC[C@@H](N)C3)sc2-c2cc3cn(CC4(O)CC4)nc3cc2F)cc1F [Hydrochloride of compound 93]
24 | 2.51 nM | 10.1 nM | N#Cc1ccc(-c2cc(C(=O)N3CCC[C@@H](N)C3)sc2-c2cc3cn(CC4(O)CCC4)nc3cc2F)cc1F [Hydrochloride of compound 95]
25 | 4.79 nM | 20.6 nM | N#Cc1ccc(-c2cc(C(=O)N3CCC[C@@H](N)C3)sc2-c2ccc(N3CC[C@H](O)C3)c(F)c2)cc1F [Hydrochloride of compound 96]
26 | 9.6 nM | 25.3 nM | N#Cc1ccc(-c2cc(C(=O)N3CCC[C@@H](N)C3)sc2-c2cc3nnn([C@H]4COCC[C@@H]4O)c3c(F)c2F)cc1F [Hydrochloride of compound 97]
27 | 0.37 nM | 14.1 nM | N#Cc1ccc(-c2cc(C(=O)N3CCCNCC3)sc2-c2cc3nnn(CC4(O)CCC4)c3c(F)c2F)cc1F [Hydrochloride of compound 100]
28 | 3.35 nM | 28.7 nM | N#Cc1ccc(-c2cc(C(=O)N3CCC[C@@H](N)C3)sc2-c2ccc(N3CC[C@@H](O)C3)c(F)c2)cc1F [Hydrochloride of compound 101]
29 | 31.4 nM | 56.9 nM | CC(C)(CO)n1cc2cc(-c3sc(C(=O)N4CCCNCC4)cc3-c3ccc(C#N)c(F)c3)ccc2n1 [Hydrochloride of compound 102]
30 | 13.7 nM | 21.6 nM | CC(C)(CO)n1nnc2cc(-c3sc(C(=O)N4CCCNCC4)cc3-c3ccc(C#N)c(F)c3)c(F)c(F)c21 [Hydrochloride of compound 103]
31 | 4.75 nM | 16.6 nM | CN[C@@H]1CCCN(C(=O)c2cc(-c3ccc(C#N)c(F)c3)c(-c3ccc4nn(C(C)(C)CO)cc4c3)s2)C1 [Hydrochloride of compound 104]
32 | 3.31 nM | 15.1 nM | N#Cc1ccc(-c2cc(C(=O)N3CCC[C@@H](N)C3)sc2-c2ccc(N3CC[C@H](O)C3)cc2)cc1F [Hydrochloride of compound 107]
33 | 2.03 nM | 10.7 nM | CN[C@@H]1CCCN(C(=O)c2cc(-c3ccc(C#N)c(F)c3)c(-c3ccc(N4CC[C@@H](O)C4)cc3)s2)C1 [Hydrochloride of compound 109]
34 | 3.47 nM | 9.84 nM | N#Cc1ccc(-c2cc(C(=O)N3CCC[C@@H](N)C3)sc2-c2ccc(N3CC[C@@H](O)C3)cc2)cc1F [Hydrochloride of compound 110]
35 | 4.99 nM | 5.84 nM | N#Cc1ccc(-c2cc(C(=O)N3CCC[C@@H](N)C3)sc2-c2ccc(N3CC[C@@H](O)C3)cc2F)cc1F [Hydrochloride of compound 112]
36 | 40.2 nM | 19 nM | N#Cc1ccc(-c2cc(C(=O)N3CCCNCC3)sc2-c2ccc(N3CC[C@@H](O)C3)cc2)cc1F [Hydrochloride of compound 117]
37 | 31.6 nM | 13.8 nM | CC1(O)CN(c2ccc(-c3sc(C(=O)N4CCC[C@@H](N)C4)cc3-c3ccc(C#N)c(F)c3)cc2)C1 [Hydrochloride of compound 118]
38 | 9.17 nM | 17.7 nM | CC(C)(O)CNc1ccc(-c2sc(C(=O)N3CCC[C@@H](N)C3)cc2-c2ccc(C#N)c(F)c2)cc1F [Hydrochloride of compound 119]
39 | 17.5 nM | 9.4 nM | N#Cc1ccc(-c2cc(C(=O)N3CCC[C@@H](N)C3)sc2-c2ccc(NCC3(O)CCC3)c(F)c2)cc1F [Hydrochloride of compound 120]
40 | 6.25 nM | 26.7 nM | Cn1nc2ccc(-c3sc(C(=O)N4CCC[C@@H](N)C4)cc3-c3ccc(C#N)c(F)c3)cc2c1F [Hydrochloride of compound 123]
